Laboratory results taken from patent US20160220557A1, “USE OF ACETYL-COA CARBOXYLASE INHIBITORS FOR TREATING ACNE VULGARIS” (PFIZER INC., priority 2013, published 2016).

Experiments:
[1] = test system: ear skin triglyceride levels; assay: Hamster ear triglyceride content after chronic treatment; type: in vivo, Syrian hamster; settings: oral 30 mg/kg once daily for 19 days
Procedure: Male Syrian gold hamsters weighing between 150-200 g (22-23 weeks) were maintained adlibitum on standard hamster chow and on a 12 hour light and dark cycle. […] At the end of the study period, animals were euthanized by CO2 asphyxiation. Hamster pinia (ear) were removed by punch biopsy (using an 8 mm diameter Sklar Tru-punch—Sklar Instruments). Punch biopsies were taken just above the anatomical “V” in the aural cartilage of each ear to standardize sample collection area. The punch was then split into 2 layers (anterior and posterior). The anterior (front) surface was retained for analysis. For liver samples the bifurcated medial lobe was removed, rinsed in saline and drained of blood by placing the cut end of the lobe on a sterile absorbent paper and using capillary action. The liver lobe was then flash frozen in liquid nitrogen. Two Qiagen 3 mm Tungsten beads were added to tubes containing individual anterior biopsies of hamster ear skin along with 500 ul of homogenization buffer (methanol:water 1:1 v/v). […] Ear skin triglyceride content was determined via LC-MS on the AB SCIEX Qtrap 5500. […] Lipid extracts were then analyzed by UPLC-MS/MS using a Waters Acquity UPLC coupled to an AB Sciex QTRAP 5500 mass spectrometer. […] Lipid species were then analyzed on the mass spectrometer using positive ion electrospray ionization in the multiple reaction monitoring (MRM) mode. […]

[2] = test system: SZ95 human sebocyte cells; assay: Inhibition of de novo lipogenesis (14C-acetate incorporation) in cultured human sebocytes; type: cell-based; settings: Homo sapiens, SZ95 sebocytes, 14C-acetate incorporation into lipids relative to vehicle; read-out: C9302E Sebocyte IC50
Procedure: SZ95 sebocytes were grown in Human Sebocyte Growth Medium (HSGM) (Sebomed® medium (Biochrom: F8205) supplemented with 10% heat-inactivated fetal bovine serum, 1% penicillin/streptomycin, 1 mM calcium chloride and 5 ng/mL recombinant human epidermal growth factor (Life Tech: PHG0311)). At 90% confluence, cells were washed three times with PBS and then detached with 0.05% Trypsin-EDTA. Cells were centrifuged and resuspended in HSGM containing 10% charcoal-stripped serum (Life Tech: 12676-029). Cells were then plated in 24-well plates at a density of 0.25×10^6 cells/well and were incubated overnight to enable cell adherence to the culture plate.
Cells were treated with a dose response of compound, and each dose was assayed in triplicate. Briefly, compounds were dissolved in DMSO stocks and diluted 1:1000 into charcoal-stripped media. 0.1% DMSO without compound was used as the vehicle control. After a 1 hour preincubation with compound or vehicle, 0.25 μCi ^14C-acetic acid (American Radiolabeled Chemicals: ARC0158B) was added to each well. Plates were then incubated for an additional two hours. At the end of the incubation period, cells were removed from incubator, placed on ice, and then washed twice with ice-cold PBS to remove free ^14C-acetic acid. Plates were sealed and stored at −20° C. until analysis.
Plates were shaken for 1 hour at room temperature to induce lysis. Lysates were transferred to individual 1.5 mL polypropylene tubes, and wells were washed with 175 μl of PBS, which was added to lysates. 450 μl of a 1:1 (v/v) chloroform:methanol solution was then added to each tube, and then all tubes were vortexed for 10 seconds and centrifuged at 20,000×g for 5 minutes at room temperature to separate aqueous from organic phase. A 25 μl aliquot was removed from the bottom organic layer of each sample and added to 6 mL OptiPhase supermix (PerkinElmer: 1200-439) scintillation fluid. Counts of ^14C incorporated into lipids were assessed by scintillation counting. DNL (counts of ^14C incorporated into lipids) was expressed for compound treated cells relative to DNL in the vehicle control treated cells for determination of EC50 values. For a subset of the compounds tested, a second aliquot (3×35 μl) of the organic layer of each sample was removed and applied to a TLC lane (Analtech Silica Gel G Plates). Radiolabeled lipids were resolved using a 2-solvent system. Solvent 1 contained a 100:100:100:40:36 mixture of ethyl acetate:isopropyl alcohol:CHCl3:MeOH:0.25% KCl and solvent 2 a 70:27:3 hexane:diethyl ether:acetic acid mix. The TLC plate was dried under nitrogen for 30 minutes and [^14C]-calibrators added to a vacant lane. Bands were visualized and quantitated using a Molecular Dynamics' Storm 860 Phosphorimager system following 18-36 hours exposure to a Phosphorimager screen.

[3] = test system: de novo lipogenesis in ear skin and liver; assay: Effect of oral and topical ACCi on DNL (14C-acetate incorporation) in Syrian hamsters; type: in vivo, Syrian hamster; settings: oral 100 mg/kg single dose, vs. vehicle
Procedure: Male Syrian gold Hamster at ˜10 weeks were maintained adlibitum on standard hamster chow and water. […] Example 3 for topical delivery was prepared as a solution in a vehicle consisting of 70:30 (Ethanol:propylene glycol) at a concentration of 100 mg/ml. Topical administration of a single dose (5 ul/ear) was applied to hamster ears with a pipette (2-10 ul) tip adhering to 2 minute intervals following the dosing order. The dosing timing allowed for the formulation to spread evenly over an approximate 1 sq cm area and absorb/dry prior to returning the animal to the cage. 1 hour post ACCi dose each animal received an IP injection of ^14C-labeled acetate (ARC0158B diluted in saline) following the 2 minute interval timing format. Each animal received an individually calculated amount of ^14C-acetate based on body weight (0.1 μCi/g in a dosing volume of 2 μl/g). One hour after the ^14C-Acetate injection animals were sacrificed by CO2 asphyxiation.
Liver and ear skin were collected for de novo lipogenesis determinations (^14C incorporation to lipid). Briefly, 2 liver punches totaling ˜400 mg of liver were collected from the bifurcated median lobe of each animal (using a 8 mm diameter Sklar Tru-punch—Sklar Instruments), rinsed with saline and blotted dry. The tissues were placed into pre-weighed in glass tubes (Pyrex 9826-16×125 mm with PTFE lined caps) containing NaOH (1.5 mL of 2.5 M).
Ear skin samples were prepared for analysis in the following manner. One 8 mm distal biopsy punch (using an 8 mm diameter Sklar Tru-punch—Sklar Instruments) (2 per animal) was taken just above the anatomical “V” in the aural cartilage to standardize sample collection area. The punch was then split into 2 layers (anterior and posterior). The anterior (front) surface is retained for analysis. The anterior skin was placed into pre-weighed in glass tubes (Pyrex 9826-16×125 mm with PTFE lined caps) containing NaOH (1.5 mL of 2.5 M).
Upon completion of the study, the liver and ear skin samples in NaOH were weighed and this weight was used to calculate the mass of the tissue collected. The capped tubes were heated in an dry oven (˜60° C.) until the tissue was fully degraded (˜4-6 hr, gentle vortexing 2-3 times during heating). Following degradation and cooling absolute ethanol (2.5 mL) was added to each sample. The tubes were recapped and vigorously mixed (vortexed) for 60 seconds and allowed to settle overnight at RT. Petroleum ether (4.8 mL) was added to each tube, recapped and the samples were vigorous mixed (60 sec). […] Aquasol-2 scintillation fluid (10 mL) (or other compatible scintillation fluid) was added to each vial and after vortexing the samples were counted in an appropriate scintillation counter (e g. Wallac Rack-Beta 1409 LSC). […]

CC(C)(C)n1cc2c(n1)C(=O)CC1(CCN(C(=O)c3ccc4[nH]ncc4c3)CC1)O2 [Example 8, 2′-(tert-butyl)-1-(1H-indazole-5-carbonyl)-2′H-spiro[piperidine-4,5′-pyrano[3,2-c]pyrazol]-7′(6′H)-one]
ear skin triglyceride levels vs. vehicle [1]: No changes | IC50 [2]: 0.549 µM | suppression of incorporation of de novo synthesized fatty acids in liver [3]: 85% | suppression of incorporation of de novo synthesized fatty acids in skin [3]: 84%
